A short description of data set [1]: Blood flow increasing effect in anesthetized rats (laser-Doppler cutaneous blood flow, AUC). It counts as in vivo. The following applies: i.v., rat. On the procedure:
(§1) The blood flow increasing effect and hypotensive effect of the compounds of the present invention were determined by the following experiment.
(§2) Male rats weighing 200-350 g were anesthetized with urethane (25% urethane, 6 ml/kg, s.c.). The carotid artery and jugular vein were cannulated with polyethylene tubes for measurement of blood pressure and for drug injection, respectively. Blood pressure was obtained with a disposable pressure transducer kit (Spectramed, Ltd) and recorded with a recticoder (model RJG-4128, Nihon kohden, Ltd). Blood flow was monitored as cutaneous blood flow of the dorsum pedis using an attachment-type laser-Doppler flowmeter (model ALF21, Advance, Ltd). Measurements were taken until the values recovered to the level observed before injection of drugs. Injection time was about 10 seconds. The hypotensive effect and blood flow increasing effect were calculated as the maximal hypotensive activity (mmHg) and the area under the curve (AUC) after injection of drugs, respectively.
(§3) The results were represented by the dose required to obtain an effective increase in blood flow (main effect), and by the hypotensive effect (side effect) at the same dose.
(§4) The compounds of the present invention were administered in the form of a liposome formulation (as prepared in Example 4 below). As a comparative compound, PGE1 1-decanoyloxyethyl ester (described in Example 10 of the specification of Japanese Patent Kokai No. 59-206349) was administered in the form of a lipid emulsion (prepared in Reference Example 8 in the present specification).
The effectiveness of increasing blood flow was determined by the following method. […] In the above-described experimental assessment system for the compounds of the present invention, the AUG for this PGE1 lipid emulsion (5 μg/kg, i.v.) was 771 on the blood flow increasing effect; thus this value was chosen as an effective value for increase in blood flow.

Data set [2] can be described thus: Hypotensive effect in anesthetized rats (carotid artery blood pressure). The following applies: rat; for Hypotensive effect, Maximum hypotension on dose (A): at dose (A) giving AUC = 771, i.v.; for Hypotensive effect, Maximum hypotension: i.v. It counts as in vivo. As for the experimental part:
as §1, §2, §3, §4

The mark [3] stands for this setting: dose 1 μg/kg, Examples as liposome formulation, comparative compound as lipid emulsion.
[4] abbreviates: dose 3 μg/kg, Examples as liposome formulation, comparative compound as lipid emulsion.
Setting [5] is: dose 10 μg/kg, Examples as liposome formulation, comparative compound as lipid emulsion.
Where [6] appears, read: Examples as liposome formulation, comparative compound as lipid emulsion.
The mark [7] stands for this setting: dose 30 μg/kg, liposome formulation.

Take `CCCCCCCCCCCCOCC(=O)OCCOC(=O)CCCCCC[C@H]1C(=O)C[C@@H](O)[C@@H]1/C=C/[C@@H](O)CCCCC` [Example 3, PGE1 2-(dodecyloxyacetoxy)ethyl ester]: the “Blood flow increasing effect, Total AUC” value in data set [1] (setting [3]) turned out to be 227; in data set [1] (setting [4]) it was 4028; in data set [1] (setting [5]) it was 5391. Besides, the “Blood flow increasing effect, Dose (A) required to obtain AUC = 771” value (“Blood flow increasing effect, Dose” below) in data set [1] (setting [6]) came to 1.14 µg/kg. The “Hypotensive effect, Maximum hypotension on dose (A)” value (from here on “Hypotensive effect … (A)”) in data set [2] (setting [6]) is 2.8 mmHG. The “Hypotensive effect, Maximum hypotension” value in data set [2] (setting [3]) worked out at 2 mmHg; in data set [2] (setting [4]) it was 9 mmHg; in data set [2] (setting [5]), 9 mmHg.
As for `CCCCCCCCCC(=O)OC(C)OC(=O)CCCCCC[C@H]1C(=O)C[C@@H](O)[C@@H]1/C=C/[C@@H](O)CCCCC` (some centres unmarked) [Comparative compound, PGE1 1-decanoyloxyethyl ester, reference compound], the “Blood flow increasing effect, Total AUC” value in data set [1] (setting [3]) is 92; in data set [1] (setting [4]) it was 222; in data set [1] (setting [5]) it was 498. Besides, the “Blood flow increasing effect, Dose” value in data set [1] (setting [6]) came out at 16.70 µg/kg. The “Hypotensive effect … (A)” value in data set [2] (setting [6]) was determined as 30.2 mmHG. Further, the “Hypotensive effect, Maximum hypotension” value in data set [2] (setting [3]) was determined as 1 mmHg; in data set [2] (setting [4]), 9 mmHg; in data set [2] (setting [5]), 18 mmHg.
Consider `CCCCCCCCCCCC(=O)OCCOC(=O)CCCCCC[C@H]1C(=O)C[C@@H](O)[C@@H]1/C=C/[C@@H](O)CCCCC` [Example 1, PGE1 (dodecanoyloxy)ethyl ester], for which the “Blood flow increasing effect, Total AUC” value was 175 in data set [1] (setting [3]), 1914 in data set [1] (setting [4]) and 3528 in data set [1] (setting [5]). The “Blood flow increasing effect, Dose” value in data set [1] (setting [6]) is 1.47 µg/kg. Besides, the “Hypotensive effect … (A)” value in data set [2] (setting [6]) is 4.3 mmHG. For the same compound, the “Hypotensive effect, Maximum hypotension” value in data set [2] (setting [3]) was determined as 3 mmHg; in data set [2] (setting [4]) it was 7 mmHg; in data set [2] (setting [5]), 13 mmHg.
With `CCCCCCCCCCCCCCCCOCC(=O)OCCOC(=O)CCCCCC[C@H]1C(=O)C[C@@H](O)[C@@H]1/C=C/[C@@H](O)CCCCC` [Example 2, PGE1 2-(hexadecyloxyacetoxy)ethyl ester], the entries for the “Blood flow increasing effect, Total AUC” value in data set [1] (setting [4]), in data set [1] (setting [5]) and in data set [1] (setting [7]) were 329, 807 and 3248, respectively. For the same compound, the “Blood flow increasing effect, Dose” value in data set [1] (setting [6]) was 8.14 µg/kg. Also, the “Hypotensive effect … (A)” value in data set [2] (setting [6]) is on record as 6.1 mmHG. Besides, the “Hypotensive effect, Maximum hypotension” value in data set [2] (setting [4]) turned out to be 3 mmHg; in data set [2] (setting [5]) it was 7 mmHg; in data set [2] (setting [7]), 20 mmHg.
